Measured values as given in PubChem BioAssay (NCI).
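Where inhibition never reached the appropriate level, the endpoint shown equals the highest concentration tested. Otherwise, values were interpolated linearly from a five-concentration, 48-hour dose response in 96-well plates. GI50 is the concentration that inhibits growth by half. At the TGI there is no net growth.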

Columns and labels:
Assay in all cases: NCI tumour cell line growth inhibition, 48 h
HS 578T breast = system: HS 578T breast
DLD-1 colon = system: DLD-1 colon
DMS 273 small cell lung = system: DMS 273 small cell lung
HOP-62 NSCLC = system: HOP-62 NSCLC
HOP-92 NSCLC = system: HOP-92 NSCLC
IGROV1 ovarian = system: IGROV1 ovarian
KM20L2 colon = system: KM20L2 colon
M19-MEL melanoma = system: M19-MEL melanoma
MALME-3M melanoma = system: MALME-3M melanoma
XF 498 CNS = system: XF 498 CNS
DU-145 prostate = system: DU-145 prostate
HOP-18 NSCLC = system: HOP-18 NSCLC
P388/ADR leukemia = system: P388/ADR leukemia
SN12K1 renal = system: SN12K1 renal
MDA-N = system: MDA-N

## CNC(=O)c1cc(Oc2cccc3nc(NC(=O)Nc4ccc(F)cc4F)ccc23)ccn1
HS 578T breast
  GI50: 1.4 µM
  TGI: 3.99 µM

## COc1ccc(/C=C(\C2=NC(=O)CS2)c2nc3ccccc3[nH]2)cc1
DLD-1 colon
  TGI: > 100 µM
DMS 273 small cell lung
  TGI: > 100 µM
HOP-62 NSCLC
  TGI: > 100 µM
HOP-92 NSCLC
  TGI: > 100 µM
IGROV1 ovarian
  TGI: > 100 µM
KM20L2 colon
  TGI: > 100 µM
M19-MEL melanoma
  TGI: > 100 µM
MALME-3M melanoma
  TGI: > 100 µM
XF 498 CNS
  TGI: 81.5 µM

## c1ccc(Sc2nc(Sc3ccccc3)nc(Sc3ccccc3)n2)cc1
DU-145 prostate
  TGI: 47.1 µM
HOP-62 NSCLC
  TGI: > 100 µM
HS 578T breast
  TGI: 75.4 µM
MALME-3M melanoma
  TGI: > 100 µM

## CN1CCN(Cn2nc(-c3cc(F)c(Cl)cc3Cl)oc2=S)CC1
DU-145 prostate
  GI50: 41.4 µM
  TGI: > 100 µM
HOP-92 NSCLC
  GI50: > 100 µM
  TGI: > 100 µM
HS 578T breast
  GI50: 28.5 µM
  TGI: 86.8 µM
IGROV1 ovarian
  GI50: 37.1 µM
  TGI: > 100 µM
MALME-3M melanoma
  GI50: 26.4 µM
  TGI: 74.1 µM

## COc1cccc2c1C(=O)c1c(O)c3c(c(O)c1C2=O)CC(O)(C(C)=O)CC3O (configuration not stated)
DLD-1 colon
  TGI: 40.9 µM
DMS 273 small cell lung
  TGI: 15.6 µM
HOP-18 NSCLC
  TGI: 41.5 µM
HOP-62 NSCLC
  TGI: 11.3 µM
HOP-92 NSCLC
  TGI: 28.9 µM
IGROV1 ovarian
  TGI: 29.7 µM
KM20L2 colon
  TGI: 48.2 µM
M19-MEL melanoma
  TGI: 15.7 µM
MALME-3M melanoma
  TGI: 12.7 µM
P388/ADR leukemia
  TGI: 9.23 µM
SN12K1 renal
  TGI: 10.5 µM
XF 498 CNS
  TGI: 1.31 µM

## CN1C(=O)[C@@H]2[C@@H]3c4ccccc4N[C@@H]3c3[nH]c4ccccc4c3[C@@H]2C1=O
DU-145 prostate
  TGI: > 100 µM
HOP-62 NSCLC
  TGI: 43.5 µM
HOP-92 NSCLC
  TGI: 59.7 µM
HS 578T breast
  TGI: 76.5 µM
IGROV1 ovarian
  TGI: 26.9 µM
MDA-N
  TGI: > 100 µM

## Cc1ccc(O)cc1 (tested in a mixture with another compound)
DU-145 prostate
  TGI: > 100 µM
HOP-62 NSCLC
  TGI: > 100 µM
HS 578T breast
  TGI: > 100 µM
IGROV1 ovarian
  TGI: > 100 µM
MALME-3M melanoma
  TGI: > 100 µM

## CN(C)CCNC(=O)c1cccc2[nH]c(-c3ccc(Cl)cc3)nc12
DLD-1 colon
  TGI: 24.5 µM
DMS 273 small cell lung
  TGI: 14.3 µM
HOP-18 NSCLC
  TGI: 61.1 µM
HOP-62 NSCLC
  TGI: 22.5 µM
HOP-92 NSCLC
  TGI: 17 µM
IGROV1 ovarian
  TGI: 25.8 µM
KM20L2 colon
  TGI: 18.6 µM
M19-MEL melanoma
  TGI: 19.7 µM
MALME-3M melanoma
  TGI: 19.9 µM
P388/ADR leukemia
  TGI: 18.4 µM
SN12K1 renal
  TGI: 14.8 µM
XF 498 CNS
  TGI: 17.6 µM

## O=P(Nc1cccc(Cl)c1)(Oc1ccccc1)N(CCCl)CCCl (configuration not stated)
DLD-1 colon
  TGI: 30.5 µM
DMS 273 small cell lung
  TGI: 27.3 µM
HOP-18 NSCLC
  TGI: 47.2 µM
HOP-62 NSCLC
  TGI: 31.1 µM
HOP-92 NSCLC
  TGI: 24.7 µM
IGROV1 ovarian
  TGI: 30.4 µM
KM20L2 colon
  TGI: 26.7 µM
M19-MEL melanoma
  TGI: 32.8 µM
MALME-3M melanoma
  TGI: 28.5 µM

## Cc1cc2nc(CC(C(F)(F)F)C(F)(F)F)oc2cc1C
DU-145 prostate
  TGI: 16.4 µM
HOP-62 NSCLC
  TGI: 17.2 µM
HOP-92 NSCLC
  TGI: 28.9 µM
HS 578T breast
  TGI: 16.6 µM
IGROV1 ovarian
  TGI: 10.1 µM
MALME-3M melanoma
  TGI: 9.32 µM
MDA-N
  TGI: 5.85 µM

## COCC1N=C(c2cc(OC)c(OC)c(OC)c2-c2cc3c(cc2[C@@H](C)O)OCO3)O[C@H]1c1ccccc1 (some centres not stated)
DLD-1 colon
  TGI: > 100 µM
DMS 273 small cell lung
  TGI: > 100 µM
HOP-18 NSCLC
  TGI: > 100 µM
HOP-62 NSCLC
  TGI: > 100 µM
HOP-92 NSCLC
  TGI: > 84.5 µM
IGROV1 ovarian
  TGI: > 100 µM
KM20L2 colon
  TGI: > 100 µM
M19-MEL melanoma
  TGI: > 100 µM
MALME-3M melanoma
  TGI: > 100 µM
P388/ADR leukemia
  TGI: > 100 µM
SN12K1 renal
  TGI: > 100 µM

## Cc1ccc(S(=O)(=O)NCCCSCCO)cc1
DU-145 prostate
  TGI: > 100 µM
HOP-92 NSCLC
  TGI: > 100 µM
HS 578T breast
  TGI: > 100 µM
MDA-N
  TGI: > 100 µM

## O=c1[nH]c(-c2ccc(Cl)cc2)cc2ccsc12
DU-145 prostate
  TGI: 6.68 µM
HOP-62 NSCLC
  TGI: > 100 µM
HOP-92 NSCLC
  TGI: 77.4 µM
IGROV1 ovarian
  TGI: > 100 µM
MALME-3M melanoma
  TGI: 5.8 µM

## CCOC(=O)C1=C(C)N(c2ccc(Cl)cc2)C2(O)C=CC(Nc3ccc(Cl)cc3)=C3C(=O)N(c4ccccc4)C(=O)C312 (configuration not stated)
DU-145 prostate
  TGI: 17.8 µM
HOP-62 NSCLC
  TGI: 14.9 µM
HOP-92 NSCLC
  TGI: 9.19 µM
HS 578T breast
  TGI: > 100 µM
IGROV1 ovarian
  TGI: 21.9 µM
MALME-3M melanoma
  TGI: 33.7 µM
